Counter-ions that a name gives are not always drawn.
Columns and labels:
Type in all cases: binding
[1] = target: T1, Recombinant human integrin ανβ1 (Homo sapiens, UniProt P05556+P06756); assay: Solid Phase Receptor Assay (SPRA) for ανβ1 function; conditions: plate-bound human fibronectin; read-out: αvβ1 SPRA IC50
T1 construct: purchased R&D Systems 6579-AV

[2] = target: T2, Recombinant human integrin ανβ6 (Homo sapiens, UniProt P06756+P18564); assay: Solid Phase Receptor Assay (SPRA) for ανβ6 function; conditions: plate-bound human LAP; read-out: αvβ6 SPRA IC50
T2 construct: purchased R&D Systems 3817-AV

[3] = target: T3, Recombinant human integrin ανβ8 (Homo sapiens, UniProt P06756+P26012); assay: Solid Phase Receptor Assay (SPRA) for ανβ8 function; conditions: plate-bound human LAP; read-out: αvβ8 SPRA IC50
T3 construct: purchased R&D Systems 4135-AV

[4] = target: T4, Recombinant human integrin α5β1 (Homo sapiens, UniProt P05556+P08648); assay: Solid Phase Receptor Assay (SPRA) for α5β1 function; conditions: plate-bound human fibronectin
T4 construct: purchased R&D Systems 3230-A5
T4 sequence (P08648 42-995 limits assumed): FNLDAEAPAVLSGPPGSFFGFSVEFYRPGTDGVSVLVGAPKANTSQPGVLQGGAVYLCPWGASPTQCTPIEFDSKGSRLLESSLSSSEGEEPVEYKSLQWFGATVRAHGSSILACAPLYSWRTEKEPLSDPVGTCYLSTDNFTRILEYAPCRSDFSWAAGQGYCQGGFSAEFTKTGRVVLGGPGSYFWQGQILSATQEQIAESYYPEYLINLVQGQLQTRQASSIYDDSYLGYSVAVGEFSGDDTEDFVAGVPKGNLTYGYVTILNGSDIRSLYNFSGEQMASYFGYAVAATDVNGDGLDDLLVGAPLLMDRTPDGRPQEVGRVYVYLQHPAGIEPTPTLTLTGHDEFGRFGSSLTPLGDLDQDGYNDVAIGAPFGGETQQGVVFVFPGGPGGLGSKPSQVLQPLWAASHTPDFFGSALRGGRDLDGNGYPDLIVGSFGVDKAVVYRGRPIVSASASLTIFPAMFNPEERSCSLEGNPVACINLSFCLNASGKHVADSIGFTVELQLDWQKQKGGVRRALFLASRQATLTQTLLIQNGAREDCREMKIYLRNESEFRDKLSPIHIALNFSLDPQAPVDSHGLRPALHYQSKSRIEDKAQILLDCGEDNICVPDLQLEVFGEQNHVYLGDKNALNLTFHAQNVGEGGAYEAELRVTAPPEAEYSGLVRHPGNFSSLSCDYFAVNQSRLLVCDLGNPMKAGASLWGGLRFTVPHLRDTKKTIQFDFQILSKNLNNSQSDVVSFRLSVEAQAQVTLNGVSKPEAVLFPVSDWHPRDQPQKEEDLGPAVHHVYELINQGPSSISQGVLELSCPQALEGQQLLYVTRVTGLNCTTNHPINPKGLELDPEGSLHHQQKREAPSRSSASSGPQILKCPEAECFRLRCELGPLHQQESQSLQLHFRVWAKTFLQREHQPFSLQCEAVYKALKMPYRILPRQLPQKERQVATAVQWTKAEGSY
T4 sequence (P05556 21-728 limits assumed): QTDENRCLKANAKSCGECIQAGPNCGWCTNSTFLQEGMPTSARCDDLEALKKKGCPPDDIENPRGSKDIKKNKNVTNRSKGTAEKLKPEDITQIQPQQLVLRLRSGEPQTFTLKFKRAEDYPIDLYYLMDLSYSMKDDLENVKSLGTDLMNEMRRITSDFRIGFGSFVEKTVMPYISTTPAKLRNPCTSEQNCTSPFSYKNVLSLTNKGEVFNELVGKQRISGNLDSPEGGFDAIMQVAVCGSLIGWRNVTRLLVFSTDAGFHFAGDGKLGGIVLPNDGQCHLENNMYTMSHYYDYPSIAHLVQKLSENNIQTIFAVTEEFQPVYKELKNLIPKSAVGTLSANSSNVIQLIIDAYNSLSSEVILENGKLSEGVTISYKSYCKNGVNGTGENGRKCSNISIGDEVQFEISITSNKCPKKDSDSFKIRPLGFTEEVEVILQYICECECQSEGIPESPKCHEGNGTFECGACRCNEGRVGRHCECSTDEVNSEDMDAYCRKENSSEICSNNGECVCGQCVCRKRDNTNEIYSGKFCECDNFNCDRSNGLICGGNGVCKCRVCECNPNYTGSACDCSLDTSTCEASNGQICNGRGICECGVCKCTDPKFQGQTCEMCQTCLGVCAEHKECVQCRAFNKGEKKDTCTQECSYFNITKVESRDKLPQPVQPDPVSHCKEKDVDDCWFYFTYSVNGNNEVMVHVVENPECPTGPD

T2 sequence (P06756 31-992 limits assumed): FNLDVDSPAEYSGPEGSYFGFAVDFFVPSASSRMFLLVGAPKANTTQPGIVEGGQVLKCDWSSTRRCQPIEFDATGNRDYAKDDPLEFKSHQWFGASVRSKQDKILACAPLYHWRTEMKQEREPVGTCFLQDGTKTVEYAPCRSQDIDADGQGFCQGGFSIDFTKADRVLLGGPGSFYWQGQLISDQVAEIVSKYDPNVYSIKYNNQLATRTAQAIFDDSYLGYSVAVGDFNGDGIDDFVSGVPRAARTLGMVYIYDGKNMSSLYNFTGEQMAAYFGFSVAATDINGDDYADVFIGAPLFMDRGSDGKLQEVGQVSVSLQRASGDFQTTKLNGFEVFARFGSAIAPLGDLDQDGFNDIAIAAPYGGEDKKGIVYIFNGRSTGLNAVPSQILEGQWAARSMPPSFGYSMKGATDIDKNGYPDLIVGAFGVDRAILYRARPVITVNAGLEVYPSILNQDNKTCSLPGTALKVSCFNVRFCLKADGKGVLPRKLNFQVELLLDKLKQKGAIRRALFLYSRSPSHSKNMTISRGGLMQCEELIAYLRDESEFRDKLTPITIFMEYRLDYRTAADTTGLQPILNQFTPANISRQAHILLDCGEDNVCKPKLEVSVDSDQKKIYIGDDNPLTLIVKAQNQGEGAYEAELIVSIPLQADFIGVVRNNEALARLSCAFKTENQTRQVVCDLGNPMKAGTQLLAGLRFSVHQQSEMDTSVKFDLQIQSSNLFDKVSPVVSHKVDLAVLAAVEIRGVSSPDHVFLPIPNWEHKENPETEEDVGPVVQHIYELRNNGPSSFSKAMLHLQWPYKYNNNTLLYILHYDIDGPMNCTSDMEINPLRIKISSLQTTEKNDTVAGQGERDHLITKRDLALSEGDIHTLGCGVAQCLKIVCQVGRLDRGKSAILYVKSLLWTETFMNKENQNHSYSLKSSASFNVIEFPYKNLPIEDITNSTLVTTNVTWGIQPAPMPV
T2 sequence (P18564 22-707 limits assumed): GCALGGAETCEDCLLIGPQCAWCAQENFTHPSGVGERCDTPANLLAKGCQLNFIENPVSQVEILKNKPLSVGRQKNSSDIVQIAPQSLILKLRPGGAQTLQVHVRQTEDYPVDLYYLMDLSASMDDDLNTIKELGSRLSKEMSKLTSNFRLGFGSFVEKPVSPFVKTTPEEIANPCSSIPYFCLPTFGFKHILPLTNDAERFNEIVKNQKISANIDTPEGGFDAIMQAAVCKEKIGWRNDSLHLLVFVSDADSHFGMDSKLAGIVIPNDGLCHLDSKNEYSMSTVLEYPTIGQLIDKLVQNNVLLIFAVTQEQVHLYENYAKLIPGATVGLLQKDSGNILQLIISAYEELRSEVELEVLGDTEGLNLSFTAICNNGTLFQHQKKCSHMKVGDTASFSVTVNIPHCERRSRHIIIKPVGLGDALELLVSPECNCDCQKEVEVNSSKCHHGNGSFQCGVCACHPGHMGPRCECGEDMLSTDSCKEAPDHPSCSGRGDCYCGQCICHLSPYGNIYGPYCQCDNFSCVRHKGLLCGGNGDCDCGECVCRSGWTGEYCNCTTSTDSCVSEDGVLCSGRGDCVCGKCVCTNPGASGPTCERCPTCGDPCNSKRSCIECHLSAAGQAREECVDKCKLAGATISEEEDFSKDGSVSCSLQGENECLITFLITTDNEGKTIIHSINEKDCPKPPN
T3 sequence (P06756 31-992 limits assumed): as the sequence (P06756 31-992 limits assumed) above
T3 sequence (P26012 43-684 limits assumed): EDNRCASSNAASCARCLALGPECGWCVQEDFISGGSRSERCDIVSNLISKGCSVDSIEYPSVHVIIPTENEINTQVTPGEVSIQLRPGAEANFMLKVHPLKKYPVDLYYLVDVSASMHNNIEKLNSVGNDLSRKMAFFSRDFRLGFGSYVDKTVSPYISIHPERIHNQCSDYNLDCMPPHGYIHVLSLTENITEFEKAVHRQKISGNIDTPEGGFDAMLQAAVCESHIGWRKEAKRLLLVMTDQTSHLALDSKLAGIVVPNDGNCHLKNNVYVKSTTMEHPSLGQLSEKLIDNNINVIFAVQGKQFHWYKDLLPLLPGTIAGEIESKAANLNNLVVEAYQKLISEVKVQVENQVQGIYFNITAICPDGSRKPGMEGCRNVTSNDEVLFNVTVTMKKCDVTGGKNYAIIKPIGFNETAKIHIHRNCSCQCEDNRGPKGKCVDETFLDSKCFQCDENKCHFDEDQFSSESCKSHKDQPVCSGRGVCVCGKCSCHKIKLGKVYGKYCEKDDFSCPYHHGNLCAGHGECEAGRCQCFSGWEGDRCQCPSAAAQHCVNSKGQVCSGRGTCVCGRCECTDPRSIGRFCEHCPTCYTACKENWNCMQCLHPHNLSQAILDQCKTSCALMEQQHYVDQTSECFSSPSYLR
T1 sequence (P06756 31-992 limits assumed): as the sequence (P06756 31-992 limits assumed) above
T1 sequence (P05556 21-728 limits assumed): as the sequence (P05556 21-728 limits assumed) above

Cn1nc(CC(CC(=O)O)c2cccc(C(C)(C)C)c2)cc1OCCc1ccc2c(n1)NCCC2 (stereo not shown) [Example 49, 3-(3-tert-butylphenyl)-4-[1-methyl-5-[2-(5,6,7,8-tetrahydro-1,8-naphthyridin-2-yl)ethoxy]pyrazol-3-yl]butanoic Acid Trifluoroacetate]
IC50 [1]: 4.4 nM
IC50 [2]: 94 nM
IC50 [3]: 73 nM
IC50 [4]: 12 nM
